Test results from ChEMBL document CHEMBL3593175, “Bicyclic [3.3.0]-Octahydrocyclopenta[c]pyrrolo Antagonists of Retinol Binding Protein 4: Potential Treatment of Atrophic Age-Related Macular Degeneration and Stargardt Disease” (J Med Chem, 2015).

Experiments:
[1] = target: T1, Retinol-binding protein 4 (Homo sapiens, UniProt P02753); experiment: Displacement of [3H]-retinol from RBP4 (unknown origin) by scintillation proximity assay
[2] = target: T1, Retinol-binding protein 4; experiment: Inhibition of retinol-induced interaction of bacterially expressed MBP-tagged RBP4 (unknown origin) with Eu3+ cryptate labeled TTR by HTRF assay
[3] = Metabolic stability in human liver microsomes assessed as compound remaining at 10 uM after 30 mins; assay type: ADME; settings: read-out: Stability
[4] = Metabolic stability in rat liver microsomes assessed as compound remaining at 10 uM after 30 mins; assay type: ADME; settings: read-out: Stability

Row | SMILES | IC50 [1] | IC50 [2] | remaining at 0.5 h, 10 µM [3] | remaining at 0.5 h, 10 µM [4]
1 | COC(=O)c1cc(C)nc(N2CCN(c3ccccc3C(F)(F)F)CC2)n1 | 9.7 nM | 1400 nM | 0% | 0%
2 | CC(C)c1cc(C(=O)O)nc(N2C[C@H]3C[C@@H](c4ccccc4C(F)(F)F)C[C@H]3C2)n1 | 153 nM | – | – | –
3 | O=C(O)c1cncc(N2C[C@H]3C[C@@H](c4ccccc4C(F)(F)F)C[C@H]3C2)c1 | > 3000 nM | – | – | –
4 | O=C(O)c1cnnc(N2C[C@H]3C[C@@H](c4ccccc4C(F)(F)F)C[C@H]3C2)c1 | 23 nM | 437 nM | – | –
5 | Cc1sc(N2C[C@H]3C[C@@H](c4ccccc4C(F)(F)F)C[C@H]3C2)nc1C(=O)O | 29.3 nM | 495 nM | – | –
6 | COC(=O)c1cc(C)nc(N2CCC(c3ccccc3C(F)(F)F)CC2)n1 | 4.1 nM | 132 nM | – | –
7 | Cc1cc(C(N)=O)nc(N2C[C@H]3C[C@@H](c4ccccc4C(F)(F)F)C[C@H]3C2)n1 | 3.3 nM | 248 nM | – | –
8 | Cc1cc(-c2nnn[nH]2)nc(N2C[C@H]3C[C@@H](c4ccccc4C(F)(F)F)C[C@H]3C2)n1 | – | 175 nM | – | –
9 | O=C(O)c1ccnc(N2C[C@H]3C[C@@H](c4ccccc4C(F)(F)F)C[C@H]3C2)n1 | 20.8 nM | – | – | –
10 | Cc1cc(C(=O)O)nc(N2C[C@@H]3CN(c4ccccc4C(F)(F)F)C[C@@H]3C2)n1 | 57.4 nM | 140 nM | 80% | 76%
11 | COC(=O)c1cc(C)nc(N2C[C@H]3C[C@@H](c4ccccc4C(F)(F)F)C[C@H]3C2)n1 | 6.3 nM | 100 nM | 0.2% | 9.8%
12 | Cc1ccc(N2C[C@H]3C[C@@H](c4ccccc4C(F)(F)F)C[C@H]3C2)nc1C(=O)O | 584 nM | 4910 nM | – | –
13 | Cc1cc(C(=O)O)nc(N2CCC(c3ccccc3C(F)(F)F)CC2)n1 | 35.3 nM | 188 nM | 68% | 96%
